Assay results reported in article PMC9823088, “The oral selective estrogen receptor degrader GDC-0810 (ARN-810) in postmenopausal women with hormone receptor-positive HER2-negative (HR + /HER2 −) advanced/metastatic breast cancer” (Breast Cancer Research and Treatment, 2022).

Legend:
[1] = system: ER + (HER2 −) locally advanced or metastatic breast cancer; assay: Anti-tumor activity per RECIST v1.1 (best confirmed overall outcome, clinical benefit rate, progression-free survival), phase Ia/Ib/IIa study; format: in vivo, human
Source text: This was a multi-institutional phase Ia/Ib/IIa, open-label, dose finding, safety, pharmacokinetics, and proof-of-concept study of GDC-0810 in women with ER + metastatic breast cancer. Phase Ia employed a standard 3 + 3 dose-escalation scheme. Phase Ib was dose escalation as part of combination treatment. Phase IIa explored the recommended phase 2 dose (RP2D) from phase Ia. The protocol was approved by institutional review boards (IRBs) at participating institutions. Written informed consent was obtained from patients prior to performing any procedures; the study was conducted in accordance with the principles of the Declaration of Helsinki and Good Clinical Practice.
(§1) Blood samples were collected for pharmacokinetic assessments. Tumor assessments were performed at screening and every 8 weeks from cycle 1, day 1 (C1D1). Radiographic assessment of objective tumor response or disease progression was based on Response Evaluation Criteria in Solid Tumors (RECIST v1.1). Transvaginal ultrasound scans were performed to monitor endometrial thickness at screening, at every 6 months from C1D1, and at the end of treatment. Imaging with [^18F]-fluoroestradiol positron emission tomography (FES-PET) was performed to quantify ER expression in tumors and to assess for pharmacodynamic response. Further assessment details are provided in Supplementary Methods.
Analyses of safety, pharmacokinetics, anti-tumor activity, and data from the FES-PET imaging correlative studies were planned. Confirmatory inferential analyses and imputation for missing data were not planned due to the exploratory nature of this study. Descriptive statistics were used to summarize patient data. The number of patients to be enrolled was dependent upon the observed safety and pharmacokinetic profile during dose escalations. The safety- and efficacy-evaluable population included patients who received at least one dose of the study drug. Safety was assessed through summaries of DLTs, AEs, changes in select laboratory test results, vital signs, ECGs, and changes in endometrial thickness. Objective response (with confirmation) and clinical benefit rates (CBR) were derived per RECIST v1.1 and summarized by dose level and cohort.
CYP2B6 and CYP2C enzymes. No hormonal therapy, chemotherapy, immunotherapy, or experimental anti-cancer medications were permitted during the study. […]
Tumor assessments were performed at screening and every 8 weeks from cycle-1, day-1 (C1D1). Radiographic assessment of objective tumor response or disease progression was based on Response Evaluation Criteria in Solid Tumors (RECIST v1.1). Transvaginal ultrasound scans were performed to monitor endometrial thickness at screening, at every 6 months from C1D1, and at the end of treatment. […]

[2] = Plasma pharmacokinetics of GDC-0810 and glucuronide metabolites; format: in vivo, human
Procedure: as §1
CYP2B6 and CYP2C enzymes. […]
Blood samples were collected for pharmacokinetic assessment on lead-in day −7 and cycle 2 day 1 (C2D1) at predose (0 hour) and postdose (0.5, 1, 1.5, 2, 3, 4, 6, 8, and 24 hours), (plus at 48 hours postdose for day−7). Full plasma pharmacokinetic profiles were obtained for GDC-0810 and its glucuronide metabolites (acyl-glucuronide and N-glucuronide) using a validated liquid chromatography/ tandem mass spectrometry method, and analyzed using non-compartmental methods for all patients in the dose escalation cohorts.
Tumor assessments were performed at screening and every 8 weeks from cycle-1, day-1 […]

CYP2B6 = system: CYP2B6; design: method as in printed; details: stated as reason for dose adjustments; ref not given; cited from earlier work
[3] = all patients, phase IIa A1, 600 mg QD, n = 19
[4] = all patients, phase IIa A2, 600 mg QD, n = 10
[5] = all patients, phase IIa B1, 600 mg QD, n = 53
[6] = all patients, phase IIa B2, 600 mg QD, n = 19
[7] = all patients, phase Ia cohorts 1–9, 100–800-mg BID, 300–400-mg QD, n = 41
[8] = all patients, phase Ib C1, 400 mg QD + PALBO, n = 4
[9] = all patients, phase Ib D1, 600 mg QD + LHRH-A, n = 6
[10] = overall, 3 study phases (152 patients)
[11] = patients (n = 77) with tumors harboring ESR1 mutations
[12] = patients with tumors harboring ESR1 mutations
[13] = tumors harboring ESR1 mutations, phase IIa A1, 600 mg QD, n = 19
[14] = tumors harboring ESR1 mutations, phase IIa A2, 600 mg QD, n = 9
[15] = tumors harboring ESR1 mutations, phase IIa B1, 600 mg QD, n = 20
[16] = tumors harboring ESR1 mutations, phase IIa B2, 600 mg QD, n = 4
[17] = tumors harboring ESR1 mutations, phase Ia cohorts 1–9, 100–800-mg BID, 300–400-mg QD, n = 23
[18] = tumors harboring ESR1 mutations, phase Ib D1, 600 mg QD + LHRH-A, n = 2

CC/C(=C(/c1ccc(/C=C/C(=O)O)cc1)c1ccc2[nH]ncc2c1)c1ccc(F)cc1Cl [GDC-0810]
CBR ([1]; 17 patients in phase Ia previously treated with fulvestrant): 35%
median time to event (median PFS) ([1]; 54 patients in study phases Ib/IIa with tumors harboring ESR1 mutations): 3.5 months
median time to event (median PFS) ([1]; 111 patients in study phases Ib/IIa): 3.5 months
Missing or unevaluable [1, 3]: 1 (5%) n (%)
Non-complete response/non-progressive disease [1, 3]: 5 (26%) n (%)
Partial response [1, 3]: 0 n (%)
Progressive disease [1, 3]: 9 (47%) n (%)
Stable disease [1, 3]: 4 (21%) n (%)
Missing or unevaluable [1, 4]: 2 (20%) n (%)
Non-complete response/non-progressive disease [1, 4]: 0 n (%)
Partial response [1, 4]: 0 n (%)
Progressive disease [1, 4]: 4 (40%) n (%)
Stable disease [1, 4]: 4 (40%) n (%)
Missing or unevaluable [1, 5]: 3 (6%) n (%)
Non-complete response/non-progressive disease [1, 5]: 8 (15%) n (%)
Partial response [1, 5]: 4 (8%) n (%)
Progressive disease [1, 5]: 21 (40%) n (%)
Stable disease [1, 5]: 17 (32%) n (%)
Missing or unevaluable [1, 6]: 0 n (%)
Non-complete response/non-progressive disease [1, 6]: 4 (21%) n (%)
Partial response [1, 6]: 0 n (%)
Progressive disease [1, 6]: 11 (58%) n (%)
Stable disease [1, 6]: 4 (21%) n (%)
Non-complete response/non-progressive disease [1, 7]: 0 n (%)
Partial response [1, 7]: 2 (5%) n (%)
Progressive disease [1, 7]: 12 (29%) n (%)
Stable disease [1, 7]: 26 (63%) n (%)
Missing or unevaluable [1, 8]: 0 n (%)
Non-complete response/non-progressive disease [1, 8]: 1 (25%) n (%)
Partial response [1, 8]: 0 n (%)
Progressive disease [1, 8]: 1 (25%) n (%)
Stable disease [1, 8]: 2 (50%) n (%)
Missing or unevaluable [1, 9]: 0 n (%)
Non-complete response/non-progressive disease [1, 9]: 1 (17%) n (%)
Partial response [1, 9]: 0 n (%)
Progressive disease [1, 9]: 3 (50%) n (%)
Stable disease [1, 9]: 2 (33%) n (%)
Progressive disease ([1]; overall population): 40%
Stable disease ([1]; overall population): 39%
missing/unevaluable ([1]; overall population): 5%
non-complete response/non-progressive disease ([1]; overall population): 13%
partial responses ([1]; overall population): 4%
Progressive disease [1, 10]: 61 (40%) n (%)
Stable disease [1, 10]: 59 (39%) n (%)
non-complete response/non-progressive disease [1, 10]: 19 (13%) n (%)
partial responses [1, 10]: 6 (4%) n (%)
CBR ([1]; overall, 3 study phases, n = 40): 26%
Progressive disease [1, 11]: 29 (38%) n (%)
Stable disease [1, 11]: 32 (42%) n (%)
missing/unevaluable [1, 11]: 4 (5%) n (%)
non-complete response/non-progressive disease [1, 11]: 9 (12%) n (%)
partial responses [1, 11]: 3 (4%) n (%)
Progressive disease [1, 12]: 38%
Stable disease [1, 12]: 42%
missing/unevaluable [1, 12]: 5%
non-complete response/non-progressive disease [1, 12]: 12%
partial responses [1, 12]: 4%
CBR (responses or SD lasting ≥ 24 weeks) ([1]; phase Ia dose escalation, 16 patients): 39%
Missing or unevaluable ([1]; phases Ib and IIa (n = 111)): 6 (5%) n (%)
PD, best confirmed overall outcome ([1]; phases Ib and IIa (n = 111)): 49 (44%) n (%)
non-complete response or non-progressive disease (non CR/PD) ([1]; phases Ib and IIa (n = 111)): 19 (17%) n (%)
CBR ([1]; phases Ib combination treatments and IIa expansion cohorts (n = 111), n = 24): 22%
CBR ([1]; tumors harboring ESR1 mutations, phase Ib/IIa (8 of 54 patients)): 15%
Missing or unevaluable [1, 13]: 1 (5%) n (%)
Non-complete response/non-progressive disease [1, 13]: 5 (26%) n (%)
Partial response [1, 13]: 0 n (%)
Progressive disease [1, 13]: 9 (47%) n (%)
Stable disease [1, 13]: 4 (21%) n (%)
Missing or unevaluable [1, 14]: 2 (22%) n (%)
Non-complete response/non-progressive disease [1, 14]: 0 n (%)
Partial response [1, 14]: 0 n (%)
Progressive disease [1, 14]: 4 (44%) n (%)
Stable disease [1, 14]: 3 (33%) n (%)
Missing or unevaluable [1, 15]: 1 (5%) n (%)
Non-complete response/non-progressive disease [1, 15]: 3 (15%) n (%)
Partial response [1, 15]: 1 (5%) n (%)
Progressive disease [1, 15]: 7 (35%) n (%)
Stable disease [1, 15]: 8 (40%) n (%)
Missing or unevaluable [1, 16]: 0 n (%)
Non-complete response/non-progressive disease [1, 16]: 1 (25%) n (%)
Partial response [1, 16]: 0 n (%)
Progressive disease [1, 16]: 2 (50%) n (%)
Stable disease [1, 16]: 1 (25%) n (%)
Missing or unevaluable [1, 17]: 0 n (%)
Non-complete response/non-progressive disease [1, 17]: 0 n (%)
Partial response [1, 17]: 2 (9%) n (%)
Progressive disease [1, 17]: 6 (26%) n (%)
Stable disease [1, 17]: 15 (65%) n (%)
Missing or unevaluable [1, 18]: 0 n (%)
Non-complete response/non-progressive disease [1, 18]: 0 n (%)
Partial response [1, 18]: 0 n (%)
Progressive disease [1, 18]: 1 (50%) n (%)
Stable disease [1, 18]: 1 (50%) n (%)
average exposure at steady state (AUC0-24 h), non-fasted compared to fasted ([2]; 600 mg QD): 1.5 fold
average exposure at steady state (Cmax), non-fasted compared to fasted ([2]; 600 mg QD): twofold
drug accumulation ([2]; following multiple dosing): Minimal drug accumulation
half-life ([2]; human, plasma, oral, 600-mg QD, non-fasted condition, read-out: mean terminal half-life (converted)): ~8 h
Tmax ([2]; human, plasma, oral, after dosing, read-out: median Tmax): 1 to 3 h
pharmacokinetic profile ([2]; up to 600 mg): linear and dose proportional
effects on CYP2B6 (CYP2B6): inhibitory effects
